Data on one molecule can be found in ChEMBL document CHEMBL2069226, “N-Aryl pyrrolidinonyl oxadiazoles as potent mGluR5 positive allosteric modulators” (Bioorg Med Chem Lett, 2012).

pEC50, pKi: −log10 of the molar value.

Data set [1] has as its target T1, Metabotropic glutamate receptor 5 (Homo sapiens, UniProt P41594). Nature of the data set: Positive allosteric modulation of human mGluR5 expressed in HEK293A cells assessed as stimulation of glutamate-induced calcium flux by FLIPR method. Format: functional, cell-based, HEK293-A. In general terms: A change in cytosolic calcium serves as a functional read-out for many receptors and channels.

For data set [2], the target named is T1, Metabotropic glutamate receptor 5. Nature of the data set: Displacement of [3H]NAM from mGluR5.
Data set [3] is described as follows: Plasma protein binding in human plasma. Conditions: read-out: PPB (converted). It is filed as ADME, cell-free.
Data set [4] can be described thus: Plasma protein binding in rat plasma. The conditions noted are these: read-out: PPB (converted). It is filed as ADME, cell-free.
A short description of data set [5]: Drug uptake in rat brain at 10 mg/kg, ip administered as single dose after 1 hr. The conditions noted are these: read-out: Drug uptake. It is filed as ADME, organism-based. Set-up: dose 10 mg/kg, route intraperitoneal.
Data set [6] is described as follows: Plasma concentration in rat at 10 mg/kg, ip administered as single dose after 1 hr. It is filed as ADME, organism-based. Set-up: dose 10 mg/kg, route intraperitoneal.
Data set [7] in a line: Ratio of drug uptake in brain to plasma in rat at 10 mg/kg, ip administered as single dose after 1 hr. It is filed as ADME, organism-based. Further details: dose 10 mg/kg, route intraperitoneal. Conditions: read-out: BPR.
A short description of data set [8]: Apparent permeability from apical to basolateral direction in MDCKI cells expressing MDR. Format: ADME, cell-based, Canis lupus familiaris. Conditions: dog, MDCK-MDR1.
Data set [9] in a line: Apparent permeability from basolateral to apical direction in MDCKI cells expressing MDR. Format: ADME, cell-based, Canis lupus familiaris. Conditions: dog, MDCK-MDR1.
The test system of data set [10] is Liver. Nature of the data set: Intrinsic clearance in human liver. It is filed as ADME, tissue-based.
The subject of data set [11] is Liver. Nature of the data set: Intrinsic clearance in rat liver. Format: ADME, tissue-based.

T1 sequence (P41594 whole entry): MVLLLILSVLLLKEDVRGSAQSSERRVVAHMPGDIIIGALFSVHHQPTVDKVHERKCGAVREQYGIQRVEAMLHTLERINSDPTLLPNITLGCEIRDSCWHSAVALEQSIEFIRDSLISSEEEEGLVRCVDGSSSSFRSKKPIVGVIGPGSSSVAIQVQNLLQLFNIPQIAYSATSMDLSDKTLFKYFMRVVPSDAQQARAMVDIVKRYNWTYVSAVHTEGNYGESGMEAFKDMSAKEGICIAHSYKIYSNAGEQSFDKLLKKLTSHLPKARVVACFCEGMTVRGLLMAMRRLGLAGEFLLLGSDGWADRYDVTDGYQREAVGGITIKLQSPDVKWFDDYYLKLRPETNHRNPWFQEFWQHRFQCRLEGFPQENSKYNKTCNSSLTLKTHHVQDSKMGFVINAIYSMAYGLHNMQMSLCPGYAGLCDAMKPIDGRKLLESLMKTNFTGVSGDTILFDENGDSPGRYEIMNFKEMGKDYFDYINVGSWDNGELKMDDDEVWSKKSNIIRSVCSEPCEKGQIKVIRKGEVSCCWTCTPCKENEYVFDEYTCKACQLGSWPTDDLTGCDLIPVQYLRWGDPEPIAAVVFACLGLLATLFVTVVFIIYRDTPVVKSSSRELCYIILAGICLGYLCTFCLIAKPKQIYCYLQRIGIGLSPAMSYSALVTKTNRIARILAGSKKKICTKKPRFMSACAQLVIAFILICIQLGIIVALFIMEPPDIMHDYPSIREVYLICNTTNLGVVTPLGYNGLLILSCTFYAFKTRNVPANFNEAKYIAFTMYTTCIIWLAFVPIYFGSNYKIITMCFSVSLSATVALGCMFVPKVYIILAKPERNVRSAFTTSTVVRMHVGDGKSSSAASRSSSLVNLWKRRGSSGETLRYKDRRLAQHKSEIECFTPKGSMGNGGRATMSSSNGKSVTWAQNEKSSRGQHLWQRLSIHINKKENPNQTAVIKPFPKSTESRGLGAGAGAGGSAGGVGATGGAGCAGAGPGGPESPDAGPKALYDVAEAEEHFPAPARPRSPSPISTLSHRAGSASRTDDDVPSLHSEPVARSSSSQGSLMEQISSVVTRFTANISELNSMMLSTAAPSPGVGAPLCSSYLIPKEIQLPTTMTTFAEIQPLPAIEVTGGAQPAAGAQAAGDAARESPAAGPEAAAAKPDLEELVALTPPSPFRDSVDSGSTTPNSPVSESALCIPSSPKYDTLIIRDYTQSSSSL

As usually defined, the pEC50 is −log10 of the EC50, conventionally taken in molar units. What is called pKi is the Ki on a negative log10 scale, so that one unit is a factor of ten. By Papp A→B is commonly meant the apparent permeability from the apical to the basolateral side of a cell layer. The Papp B→A is how fast a substance crosses the layer from the basolateral side. For the molecule `Cc1cccc(-c2noc(C3CC(=O)N(c4ccc(F)cc4)C3)n2)c1` (single isomer, unassigned; (-)), the pEC50 in data set [1] is 8.29. The same molecule gave a negative logarithm of the Ki (pKi) in [2] of 6.64. Moreover, the fraction unbound in data set [3] is 0.007; in data set [4], 0.003. Also, the values for the concentration at 1 h in [5] and in data set [6] were 342 ng/g and 46 ng/mL, respectively. In addition, the Kp at 1 h in data set [7] was 7.5. The apical-to-basolateral permeability (Papp A→B) in [8] was found to be 20 ×10⁻⁶ cm/s. Also, the apparent permeability from basolateral to apical (Papp B→A) in data set [9] stood at 6.4 ×10⁻⁶ cm/s. The CLH is 1 L/min with Liver [10] and 20 mL/min with Liver [11].
